In PubChem BioAssay (NCI):
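Briefly, cells in 96-well plates were exposed to five compound concentrations for 48 h, and endpoints were estimated by linear interpolation. GI50 marks 50% less growth. At the TGI there is no net growth.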

Tests used:
Test in all cases: NCI anticancer screen, dose series, 48 h
MDA-N = test system: MDA-N
RPMI-8226 leukemia = test system: RPMI-8226 leukemia
DU-145 prostate = test system: DU-145 prostate
MOLT-4 leukemia = test system: MOLT-4 leukemia
M14 melanoma = test system: M14 melanoma
SK-OV-3 ovarian = test system: SK-OV-3 ovarian
NCI-H226 lung = test system: NCI-H226 lung
A498 renal = test system: A498 renal
SNB-75 CNS = test system: SNB-75 CNS
UACC-257 melanoma = test system: UACC-257 melanoma
MDA-MB-435 = test system: MDA-MB-435
SK-MEL-28 melanoma = test system: SK-MEL-28 melanoma
BT-549 breast = test system: BT-549 breast
SK-MEL-2 melanoma = test system: SK-MEL-2 melanoma
HOP-62 NSCLC = test system: HOP-62 NSCLC
PC-3 prostate = test system: PC-3 prostate
U251 CNS = test system: U251 CNS
OVCAR-5 ovarian = test system: OVCAR-5 ovarian
HS 578T breast = test system: HS 578T breast
SW-620 colon = test system: SW-620 colon
SN12C renal = test system: SN12C renal
ACHN renal = test system: ACHN renal
SF-295 CNS = test system: SF-295 CNS
UO-31 renal = test system: UO-31 renal
UACC-62 melanoma = test system: UACC-62 melanoma
MALME-3M melanoma = test system: MALME-3M melanoma
A549 NSCLC = test system: A549 NSCLC
K-562 leukemia = test system: K-562 leukemia
HT29 colon = test system: HT29 colon
OVCAR-4 ovarian = test system: OVCAR-4 ovarian
CAKI-1 renal = test system: CAKI-1 renal
LOX IMVI melanoma = test system: LOX IMVI melanoma
T-47D breast = test system: T-47D breast
EKVX NSCLC = test system: EKVX NSCLC
NCI-H460 lung = test system: NCI-H460 lung
SF-268 CNS = test system: SF-268 CNS
NCI/ADR-RES ovarian = test system: NCI/ADR-RES ovarian
KM12 colon = test system: KM12 colon
OVCAR-8 ovarian = test system: OVCAR-8 ovarian
HCC-2998 colon = test system: HCC-2998 colon
HCT-116 colon = test system: HCT-116 colon
HOP-92 NSCLC = test system: HOP-92 NSCLC
IGROV1 ovarian = test system: IGROV1 ovarian
NCI-H522 lung = test system: NCI-H522 lung
OVCAR-3 ovarian = test system: OVCAR-3 ovarian
MCF7 breast = test system: MCF7 breast
TK-10 renal = test system: TK-10 renal
786-0 renal = test system: 786-0 renal
SF-539 CNS = test system: SF-539 CNS
COLO 205 colon = test system: COLO 205 colon
HL-60(TB) leukemia = test system: HL-60(TB) leukemia
CCRF-CEM leukemia = test system: CCRF-CEM leukemia
SK-MEL-5 melanoma = test system: SK-MEL-5 melanoma
RXF 393 renal = test system: RXF 393 renal
HCT-15 colon = test system: HCT-15 colon
SNB-19 CNS = test system: SNB-19 CNS
NCI-H23 lung = test system: NCI-H23 lung
MDA-MB-231 breast = test system: MDA-MB-231 breast

NC(N)=N/N=C/c1c(-c2ccc(Cl)cc2)nc2n1CCS2
TGI (MDA-N): 23.3 µM | TGI (RPMI-8226 leukemia): 26.9 µM | TGI (DU-145 prostate): 25.5 µM | TGI (MOLT-4 leukemia): 17.3 µM | TGI (M14 melanoma): 11.1 µM | TGI (SK-OV-3 ovarian): 27 µM | TGI (NCI-H226 lung): 41 µM | TGI (A498 renal): 26.4 µM | TGI (SNB-75 CNS): 26.2 µM | TGI (UACC-257 melanoma): 28 µM | TGI (MDA-MB-435): 25.6 µM | TGI (SK-MEL-28 melanoma): 26.8 µM | TGI (BT-549 breast): 28 µM | TGI (SK-MEL-2 melanoma): 24.2 µM | TGI (HOP-62 NSCLC): 27.4 µM | TGI (PC-3 prostate): 18.2 µM | TGI (U251 CNS): 28.5 µM | TGI (OVCAR-5 ovarian): 28.3 µM | TGI (HS 578T breast): 58.8 µM | TGI (SW-620 colon): 21 µM | TGI (SN12C renal): 29.5 µM | TGI (ACHN renal): 27 µM | TGI (SF-295 CNS): 11.3 µM | TGI (UO-31 renal): 25.5 µM | TGI (UACC-62 melanoma): 24.6 µM | TGI (MALME-3M melanoma): 30.9 µM | TGI (A549 NSCLC): 22.2 µM | TGI (K-562 leukemia): 20 µM | TGI (HT29 colon): 21.1 µM | TGI (OVCAR-4 ovarian): 28.6 µM | TGI (CAKI-1 renal): 28 µM | TGI (LOX IMVI melanoma): 18 µM | TGI (T-47D breast): 34.8 µM | TGI (EKVX NSCLC): 30.4 µM | TGI (NCI-H460 lung): 26.9 µM | TGI (SF-268 CNS): 25.3 µM | TGI (NCI/ADR-RES ovarian): 32.6 µM | TGI (KM12 colon): 24.2 µM | TGI (OVCAR-8 ovarian): 29.5 µM | TGI (HCC-2998 colon): 8.39 µM | TGI (HCT-116 colon): 16.4 µM | TGI (HOP-92 NSCLC): 22.6 µM | TGI (IGROV1 ovarian): 27.5 µM | TGI (NCI-H522 lung): 28.7 µM | TGI (OVCAR-3 ovarian): 22.1 µM | TGI (MCF7 breast): 27.9 µM | TGI (TK-10 renal): 29.4 µM | TGI (786-0 renal): 17.1 µM | TGI (SF-539 CNS): 25 µM | TGI (COLO 205 colon): 14.3 µM | TGI (HL-60(TB) leukemia): > 100 µM | TGI (CCRF-CEM leukemia): 16.9 µM | TGI (SK-MEL-5 melanoma): 10.3 µM | TGI (RXF 393 renal): 24.5 µM | TGI (HCT-15 colon): 28.8 µM | TGI (SNB-19 CNS): 32.6 µM

COc1ccc(-c2cc(=O)c3cccnc3[nH]2)cc1
GI50 (MDA-N): 20.8 µM | TGI (MDA-N): 78.3 µM | TGI (RPMI-8226 leukemia): > 100 µM | TGI (DU-145 prostate): > 100 µM | TGI (MOLT-4 leukemia): > 100 µM | TGI (M14 melanoma): 95.6 µM | TGI (SK-OV-3 ovarian): > 100 µM | TGI (NCI-H226 lung): > 100 µM | TGI (A498 renal): > 100 µM | TGI (UACC-257 melanoma): > 100 µM | TGI (NCI-H23 lung): > 100 µM | GI50 (MDA-MB-435): 20 µM | TGI (MDA-MB-435): 91.6 µM | TGI (SK-MEL-28 melanoma): > 100 µM | TGI (BT-549 breast): > 100 µM | TGI (SK-MEL-2 melanoma): > 100 µM | TGI (HOP-62 NSCLC): > 100 µM | GI50 (PC-3 prostate): 31.7 µM | TGI (PC-3 prostate): > 100 µM | GI50 (U251 CNS): 54.1 µM | TGI (U251 CNS): > 100 µM | TGI (OVCAR-5 ovarian): > 100 µM | TGI (HS 578T breast): > 100 µM | TGI (SW-620 colon): > 100 µM | TGI (SN12C renal): > 100 µM | TGI (ACHN renal): > 100 µM | GI50 (SF-295 CNS): 65 µM | TGI (SF-295 CNS): > 100 µM | TGI (UO-31 renal): > 100 µM | TGI (UACC-62 melanoma): 91.2 µM | TGI (MALME-3M melanoma): > 100 µM | TGI (A549 NSCLC): > 100 µM | TGI (K-562 leukemia): 88.6 µM | TGI (HT29 colon): 38.4 µM | TGI (OVCAR-4 ovarian): > 100 µM | TGI (CAKI-1 renal): > 100 µM | TGI (LOX IMVI melanoma): > 100 µM | TGI (T-47D breast): > 100 µM | TGI (EKVX NSCLC): > 100 µM | GI50 (NCI-H460 lung): 26.4 µM | TGI (NCI-H460 lung): 91.4 µM | TGI (SF-268 CNS): > 100 µM | TGI (NCI/ADR-RES ovarian): > 100 µM | TGI (KM12 colon): > 100 µM | TGI (OVCAR-8 ovarian): > 100 µM | TGI (HCC-2998 colon): > 100 µM | GI50 (HCT-116 colon): 17.6 µM | TGI (HCT-116 colon): 80.3 µM | TGI (IGROV1 ovarian): > 100 µM | TGI (NCI-H522 lung): > 100 µM | GI50 (OVCAR-3 ovarian): 29.9 µM | TGI (OVCAR-3 ovarian): > 100 µM | TGI (MCF7 breast): > 100 µM | TGI (TK-10 renal): > 100 µM | GI50 (786-0 renal): 56.5 µM | TGI (786-0 renal): > 100 µM | TGI (SF-539 CNS): > 100 µM | TGI (MDA-MB-231 breast): > 100 µM | TGI (COLO 205 colon): 52.5 µM | GI50 (HL-60(TB) leukemia): 13 µM | TGI (HL-60(TB) leukemia): 57.1 µM | TGI (CCRF-CEM leukemia): 85.6 µM | GI50 (SK-MEL-5 melanoma): 35 µM | TGI (SK-MEL-5 melanoma): > 100 µM | TGI (RXF 393 renal): > 100 µM | TGI (HCT-15 colon): > 100 µM | TGI (SNB-19 CNS): > 100 µM
